Test results as given in patent US20230365620A1, “CYCLIN-DEPENDENT KINASE INHIBITORS AND METHODS OF USE” (DANA-FARBER CANCER INSTITUTE, INC., priority 2018, published 2023).

Key:
CDK8 [1] = target: T1, CDK8 (Homo sapiens, UniProt P49336); assay: LANTHASCREEN Eu Kinase Binding Assay (competitive kinase binding, Tracer displacement); set-up: purchased INVITROGEN; settings: displacing the Tracer from binding to the target kinase; read-out: Enzyme IC50
Method: The biological activities of the compounds of the present application can be assessed through a variety of methods known in the art. […] The changes in the signal produced by the reporting ligand when the compound is present relative when the compound is absent are recorded, which are calculated to provide the IC50 of the compound. Compounds of the present application were tested in a competitive kinase binding assay by using commercially available assay system. For example, LANTHASCREEN© Eu Kinase Binding Assay (INVITROGEN™) was used to measure the IC50 of the compounds of the present application in displacing the Tracer from binding to the target kinase, by following the assay protocol from INVITROGEN™.
Target sequence in this assay (P49336 whole entry): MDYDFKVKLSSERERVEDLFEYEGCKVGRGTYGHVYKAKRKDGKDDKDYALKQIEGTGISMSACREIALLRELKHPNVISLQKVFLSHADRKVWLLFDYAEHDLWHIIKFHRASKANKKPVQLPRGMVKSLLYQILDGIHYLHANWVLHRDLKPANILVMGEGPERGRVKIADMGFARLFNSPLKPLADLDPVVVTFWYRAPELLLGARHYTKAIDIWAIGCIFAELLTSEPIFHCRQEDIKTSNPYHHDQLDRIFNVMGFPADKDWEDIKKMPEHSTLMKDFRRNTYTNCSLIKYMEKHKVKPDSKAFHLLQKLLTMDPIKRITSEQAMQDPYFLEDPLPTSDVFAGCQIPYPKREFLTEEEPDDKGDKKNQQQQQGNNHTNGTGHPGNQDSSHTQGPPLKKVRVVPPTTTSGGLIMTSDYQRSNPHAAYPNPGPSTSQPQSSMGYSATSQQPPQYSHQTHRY
Target sequence in this assay (P24863 whole entry partner): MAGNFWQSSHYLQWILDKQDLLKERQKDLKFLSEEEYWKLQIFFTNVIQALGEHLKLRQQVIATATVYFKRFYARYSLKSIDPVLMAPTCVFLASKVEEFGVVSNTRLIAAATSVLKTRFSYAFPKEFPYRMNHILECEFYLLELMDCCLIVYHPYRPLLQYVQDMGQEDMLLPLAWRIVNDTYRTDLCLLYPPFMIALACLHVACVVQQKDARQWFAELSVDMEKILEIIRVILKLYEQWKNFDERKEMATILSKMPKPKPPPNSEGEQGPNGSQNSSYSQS

CDK8 [2] = target: T1, CDK8; assay: CDK8 IC50 stated for DCA; format: biochemical; set-up: purchased INVITROGEN
Target sequence in this assay (P49336 whole entry): as the sequence (P49336 whole entry) above
Target sequence in this assay (P24863 whole entry partner): as the sequence (P24863 whole entry partner) above

[3] = tested on: phosphorylation of S727-STAT1, a known CDK8 substrate, in HepG2 cells; assay: Western blot of pS727-STAT1 in IFNγ-treated HepG2 cells; format: cell-based; settings: 18 h with IFNγ, Compound 33 at 0.5, 1 or 5 μM, DCA at 0.1 or 1 μM
Method: FIG. 1 is a Western blot illustrating inhibition of phosphorylation of 5727-STAT1, a known CDK8 substrate, to form pS727-STAT1. pS727-STAT1 and total STAT1 were from HepG2 cells independently treated for 18 h with interferon gamma (IFNγ) and 0.5 μM, 1 μM, or 5 μM Compound 33, or with IFNγ and 0.1 μM or 1 μM dehydrocortistatin A (“DCA”).

NEK1 [4] = target: T2, NEK1 (Homo sapiens, UniProt Q96PY6); assay: Dose-response analysis of NEK1; format: biochemical
T2 sequence (Q96PY6 1-1258): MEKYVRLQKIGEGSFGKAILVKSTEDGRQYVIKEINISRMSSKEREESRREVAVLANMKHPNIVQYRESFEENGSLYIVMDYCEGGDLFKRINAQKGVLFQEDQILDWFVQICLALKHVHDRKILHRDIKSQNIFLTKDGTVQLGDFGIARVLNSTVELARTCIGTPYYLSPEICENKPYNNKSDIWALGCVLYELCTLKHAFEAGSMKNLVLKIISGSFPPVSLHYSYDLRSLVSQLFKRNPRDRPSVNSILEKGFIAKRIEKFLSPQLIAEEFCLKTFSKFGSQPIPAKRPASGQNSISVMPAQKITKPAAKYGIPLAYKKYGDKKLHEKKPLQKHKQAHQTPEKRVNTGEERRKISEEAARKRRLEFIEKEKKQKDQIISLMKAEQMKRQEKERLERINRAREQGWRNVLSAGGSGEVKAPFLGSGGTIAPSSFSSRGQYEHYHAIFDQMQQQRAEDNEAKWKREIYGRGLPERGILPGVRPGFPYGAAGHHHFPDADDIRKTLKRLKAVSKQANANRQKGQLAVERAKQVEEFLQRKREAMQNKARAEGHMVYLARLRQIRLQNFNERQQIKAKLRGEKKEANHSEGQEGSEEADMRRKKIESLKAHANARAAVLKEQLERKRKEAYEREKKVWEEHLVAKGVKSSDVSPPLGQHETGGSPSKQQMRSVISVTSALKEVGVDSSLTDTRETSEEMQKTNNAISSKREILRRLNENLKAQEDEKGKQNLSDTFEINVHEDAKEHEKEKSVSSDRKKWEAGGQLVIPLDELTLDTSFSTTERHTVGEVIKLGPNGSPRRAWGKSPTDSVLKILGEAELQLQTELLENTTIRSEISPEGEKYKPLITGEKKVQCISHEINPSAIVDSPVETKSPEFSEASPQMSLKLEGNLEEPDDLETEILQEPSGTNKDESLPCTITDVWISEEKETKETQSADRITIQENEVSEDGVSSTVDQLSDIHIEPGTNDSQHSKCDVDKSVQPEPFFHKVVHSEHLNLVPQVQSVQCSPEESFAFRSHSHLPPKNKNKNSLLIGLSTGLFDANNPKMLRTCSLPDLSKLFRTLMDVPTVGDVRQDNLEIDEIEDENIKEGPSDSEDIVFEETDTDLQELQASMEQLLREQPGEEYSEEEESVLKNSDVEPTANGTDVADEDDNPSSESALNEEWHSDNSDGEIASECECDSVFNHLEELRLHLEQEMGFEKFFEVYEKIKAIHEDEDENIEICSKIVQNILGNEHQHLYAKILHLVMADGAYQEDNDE

panel of 468 kinases = assay: KINOMESCAN binding analysis, panel of 468 kinases; settings: 10 μM
Method: (§1) The KINOMESCAN® was performed with binding assays of Compound 33 against a panel of 468 kinases at a concentration of 10 μM.
(§2) To evaluate the kinase selectivity of compounds of the application, KINOMESCAN® binding analysis against a panel of 468 kinases at a concentration of 10 μM was conducted.

NEK1 [5] = target: T2, NEK1; assay: KINOMESCAN binding analysis
Method: as §1, §2

PIKFYVE = PIKFYVE (Homo sapiens, UniProt Q9Y2I7); assay: KINOMESCAN binding analysis
Method: as §1, §2

CDK19 = CDK19 (Homo sapiens, UniProt Q9BWU1); assay: KINOMESCAN binding analysis
Method: as §1, §2

CDK8 [6] = target: T1, CDK8; assay: KINOMESCAN binding analysis
Method: as §1, §2
Target sequence in this assay (P49336 whole entry): as the sequence (P49336 whole entry) above

Sequence of PIKFYVE (Q9Y2I7 whole entry): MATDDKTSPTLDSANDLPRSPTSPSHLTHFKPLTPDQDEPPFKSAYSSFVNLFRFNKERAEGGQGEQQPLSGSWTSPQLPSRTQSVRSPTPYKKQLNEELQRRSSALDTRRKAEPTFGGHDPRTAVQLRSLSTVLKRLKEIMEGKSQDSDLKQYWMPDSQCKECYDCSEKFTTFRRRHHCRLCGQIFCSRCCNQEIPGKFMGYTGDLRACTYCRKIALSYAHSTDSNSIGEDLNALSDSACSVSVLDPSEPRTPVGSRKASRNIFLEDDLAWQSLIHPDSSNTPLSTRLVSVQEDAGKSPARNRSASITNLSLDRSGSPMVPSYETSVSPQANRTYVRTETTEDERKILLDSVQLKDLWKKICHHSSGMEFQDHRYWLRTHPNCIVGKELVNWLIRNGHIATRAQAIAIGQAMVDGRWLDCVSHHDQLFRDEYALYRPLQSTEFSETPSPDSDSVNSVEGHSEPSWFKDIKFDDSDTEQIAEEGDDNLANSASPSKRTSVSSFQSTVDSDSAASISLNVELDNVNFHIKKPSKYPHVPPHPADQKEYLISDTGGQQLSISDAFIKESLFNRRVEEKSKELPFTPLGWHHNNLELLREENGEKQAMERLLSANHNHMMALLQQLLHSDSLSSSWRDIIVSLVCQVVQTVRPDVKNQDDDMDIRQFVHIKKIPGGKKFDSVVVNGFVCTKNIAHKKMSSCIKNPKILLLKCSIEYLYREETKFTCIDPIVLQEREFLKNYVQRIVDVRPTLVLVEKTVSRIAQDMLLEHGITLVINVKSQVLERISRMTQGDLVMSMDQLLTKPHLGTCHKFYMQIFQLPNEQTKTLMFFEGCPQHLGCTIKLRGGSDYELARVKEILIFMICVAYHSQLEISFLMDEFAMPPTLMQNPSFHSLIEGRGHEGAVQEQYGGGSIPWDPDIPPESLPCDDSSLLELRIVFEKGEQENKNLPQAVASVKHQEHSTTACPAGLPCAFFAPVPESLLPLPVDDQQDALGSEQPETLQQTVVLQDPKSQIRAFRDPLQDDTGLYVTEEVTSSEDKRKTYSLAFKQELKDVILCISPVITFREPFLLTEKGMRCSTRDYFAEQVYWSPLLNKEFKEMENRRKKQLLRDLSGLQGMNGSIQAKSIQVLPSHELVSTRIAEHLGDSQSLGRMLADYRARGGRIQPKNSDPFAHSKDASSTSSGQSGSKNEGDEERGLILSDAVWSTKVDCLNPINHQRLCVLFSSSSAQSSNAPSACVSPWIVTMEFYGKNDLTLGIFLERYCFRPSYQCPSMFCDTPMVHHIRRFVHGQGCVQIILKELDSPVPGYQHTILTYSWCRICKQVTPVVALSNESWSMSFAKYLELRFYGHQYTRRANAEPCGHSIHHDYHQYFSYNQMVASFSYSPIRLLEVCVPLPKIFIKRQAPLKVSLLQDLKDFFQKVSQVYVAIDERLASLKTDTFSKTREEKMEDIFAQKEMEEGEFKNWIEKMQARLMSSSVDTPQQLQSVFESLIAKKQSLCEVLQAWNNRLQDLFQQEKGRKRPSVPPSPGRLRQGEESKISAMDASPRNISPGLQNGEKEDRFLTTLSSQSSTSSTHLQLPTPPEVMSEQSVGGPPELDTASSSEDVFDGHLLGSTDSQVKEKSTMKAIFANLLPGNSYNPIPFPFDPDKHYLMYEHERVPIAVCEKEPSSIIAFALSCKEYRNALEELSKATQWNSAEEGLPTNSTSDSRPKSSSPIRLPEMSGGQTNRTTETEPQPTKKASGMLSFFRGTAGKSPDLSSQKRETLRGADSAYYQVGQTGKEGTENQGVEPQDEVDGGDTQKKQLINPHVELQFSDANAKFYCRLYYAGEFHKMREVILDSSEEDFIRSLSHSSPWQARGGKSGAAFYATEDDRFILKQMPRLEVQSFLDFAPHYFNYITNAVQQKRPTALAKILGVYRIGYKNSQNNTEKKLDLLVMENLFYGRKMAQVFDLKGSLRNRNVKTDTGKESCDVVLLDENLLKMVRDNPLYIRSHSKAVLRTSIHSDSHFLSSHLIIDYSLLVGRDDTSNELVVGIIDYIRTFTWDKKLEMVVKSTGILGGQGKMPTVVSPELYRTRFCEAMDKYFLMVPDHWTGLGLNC
Sequence of CDK19 (Q9BWU1 whole entry): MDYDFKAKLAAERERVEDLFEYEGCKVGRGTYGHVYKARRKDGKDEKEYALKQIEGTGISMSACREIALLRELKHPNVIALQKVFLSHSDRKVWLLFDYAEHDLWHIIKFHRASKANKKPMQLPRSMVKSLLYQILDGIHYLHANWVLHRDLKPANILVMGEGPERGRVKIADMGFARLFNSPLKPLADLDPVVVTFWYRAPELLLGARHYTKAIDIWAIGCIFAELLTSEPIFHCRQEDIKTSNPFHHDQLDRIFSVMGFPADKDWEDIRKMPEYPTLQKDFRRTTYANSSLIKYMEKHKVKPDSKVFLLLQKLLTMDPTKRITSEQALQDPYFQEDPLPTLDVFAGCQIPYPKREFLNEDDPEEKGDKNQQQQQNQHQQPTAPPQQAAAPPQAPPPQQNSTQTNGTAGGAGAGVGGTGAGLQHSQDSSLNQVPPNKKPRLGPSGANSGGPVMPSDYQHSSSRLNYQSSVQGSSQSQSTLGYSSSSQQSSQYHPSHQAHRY

Row | SMILES | IC50 (CDK8 [1]) [µM] | other results
1 | C[C@]12CC[C@H]3[C@@H](CC=C4C[C@@H](O)CC[C@@]43C)[C@@H]1CC[C@@H]2c1ccc2ccncc2c1 [Compound 8a, (3S,8S,9S,10R,13S,14S,17S)-17-(isoquinolin-7-yl)-10,13-dimethyl-2,3,4,7,8,9,10,11,12,13,14,15,16,17-tetradecahydro-1H-cyclopenta[a]phenanthren-3-ol] | < 0.1 | –
2 | CN(C)[C@H]1CC[C@@]2(C)[C@@H](CC[C@@H]3[C@@H]2CC[C@]2(C)C(c4ccc5ccncc5c4)=CC[C@@H]32)C1 [Compound 22r, (3S,8R,9S,10S,13S,14S)-17-(isoquinolin-7-yl)-N,N,10,13-tetramethyl-2,3,4,5,6,7,8,9,10,11,12,13,14,15-tetradecahydro-1H-cyclopenta[a]phenanthren-3-amine] | 0.101 to 0.2 | –
3 | C[C@]12CC[C@H]3[C@@H](CC=C4C[C@@H](O)CC[C@@]43C)[C@@H]1CC[C@@H]2c1ccc2[nH]ncc2c1 [Compound 12] | > 6 | –
4 | C[C@]12CC[C@H]3[C@@H](CC=C4C[C@@H](O)CC[C@@]43C)[C@@H]1CC[C@@H]2c1ccc2cnncc2c1 [Compound 9] | > 6 | –
5 | C[C@]12CC[C@H](O)CC1=CC[C@@H]1[C@@H]2CC[C@]2(C)C(c3ccc4c(N)n[nH]c4c3)=CC[C@@H]12 [Compound 5] | 0.701 to 2 | –
6 | CN(C)[C@H]1C[C@@]23CC[C@@]4(O2)C(=CC[C@]2(C)C(c5ccc6ccncc6c5)=CC[C@H]24)C=C3[C@@H](O)[C@@H]1O [DCA, dehydrocortistatin A, reference compound] | – | IC50 (CDK8 [2]): 0.017 µM; inhibition of S727 phosphorylation of STAT1 [3]: dose-dependent inhibition
7 | CN(C)[C@H]1CC[C@@]2(C)C(=CCC3[C@@H]4CC[C@H](c5ccc6ccncc6c5)[C@@]4(C)CC[C@@H]32)C1 (stereo in doubt) [Compound 33, (3S,8R,9S,10R,13S,14S)-17-(isoquinolin-7-yl)-N,N,10,13-tetramethyl-2,3,4,7,8,9,10,11,12,13,14,15,16,17-tetradecahydro-1H-cyclopenta[a]phenanthren-3-amine] | < 0.1 | IC50 (NEK1 [4]): > 10 µM; kinase selectivity (panel of 468 kinases): highly selective for CDK8 and CDK19; number of interactions greater than 90% inhibition (panel of 468 kinases): 4; inhibition at 10 µM (NEK1 [5]): > 90%; inhibition at 10 µM (PIKFYVE): > 90%; inhibition at 10 µM (CDK19): > 90%; inhibition at 10 µM (CDK8 [6]): > 90%; inhibition of S727 phosphorylation of STAT1 [3]: dose-dependent inhibition
8 | C[C@]12CC[C@H](O)CC1=CC[C@@H]1[C@@H]2CC[C@]2(C)C(c3ccc4cnncc4c3)=CC[C@@H]12 [Compound 3] | > 6 | –
9 | C[C@]12CC[C@H](O)CC1=CC[C@@H]1[C@@H]2CC[C@]2(C)C(c3ccc4[nH]ncc4c3)=CC[C@@H]12 [Compound 6] | > 6 | –
10 | C[C@]12CC[C@H]3[C@@H](CC=C4C[C@@H](O)CC[C@@]43C)[C@@H]1CC[C@@H]2c1ccc2cn[nH]c2c1 [Compound 13] | > 6 | –
11 | C[C@]12CC[C@H](O)CC1=CC[C@@H]1[C@@H]2CC[C@]2(C)C(c3ccc4cn[nH]c4c3)=CC[C@@H]12 [Compound 7] | > 6 | –

Second part, led by results:

Row | IC50 (CDK8 [1]) [µM] | SMILES | other results
12 | > 6 | C[C@]12CC[C@H](O)CC1=CC[C@@H]1C2CC[C@]2(C)C(c3ccc4cnccc4c3)=CC[C@@H]12 (some centres unmarked) [Compound 48] | –
13 | < 0.1 | CN(C)[C@@H]1CC[C@@]2(C)[C@@H](CC[C@@H]3[C@@H]2CC[C@]2(C)[C@@H](c4ccc5ccncc5c4)CC[C@@H]32)C1 [Compound 25] | –
14 | 0.101 to 0.2 | C[C@]12CC[C@H](N3CCOCC3)C[C@@H]1CC[C@@H]1[C@@H]2CC[C@]2(C)[C@@H](c3ccc4ccncc4c3)CC[C@@H]12 [Compound 34, 4-((3S,5S,8R,10S,13S,14S,17S)-17-(isoquinolin-7-yl)-10,13-dimethylhexadecahydro-1H-cyclopenta[a]phenanthren-3-yl)morpholine] | –
15 | 0.701 to 2 | CN[C@H]1CC[C@@]2(C)[C@@H](CC[C@@H]3[C@@H]2CC[C@]2(C)[C@@H](c4ccc5ccncc5c4)CC[C@@H]32)C1 [Compound 46, (3S,8R,9S,10S,13S,14S,17S)-17-(isoquinolin-7-yl)-N,10,13-trimethylhexadecahydro-1H-cyclopenta[a]phenanthren-3-amine] | –
16 | < 0.1 | C[C@]12CC[C@H](n3ccnn3)C[C@@H]1CC[C@@H]1[C@@H]2CC[C@]2(C)[C@@H](c3ccc4ccncc4c3)CC[C@@H]12 [Compound 39, 7-((3S,8R,9S,10S,13S,14S,17S)-10,13-dimethyl-3-(1H-1,2,3-triazol-1-yl)hexadecahydro-1H-cyclopenta[a]phenanthren-17-yl)isoquinoline] | –
17 | < 0.1 | CN(C)[C@H]1CC[C@@]2(C)[C@@H](CC[C@@H]3[C@@H]2CC[C@]2(C)[C@@H](c4ccc5ccncc5c4)CC[C@@H]32)C1 [Compound 23, (3S,8R,9S,10S,13S,14S,17S)-(isoquinolin-7-yl)-N,N,10,13-tetramethylhexadecahydro-1H-cyclopenta[a]phenanthren-3-amine] | –
